Test results published in the NIST ThermoML archive (doi:10.1016/j.fluid.2014.02.018).
Numbers after ± are expanded uncertainties.

Conditions: 313.15 K; Liquid; Closed cell (Static) method

| Structure (SMILES) | vapor or sublimation pressure [kPa] |
| --- | --- |
| CC(C)CC(C)(C)C [2,2,4-trimethylpentane] | 12.95 ± 0.031 |
| CCC(C)O (stereo not drawn) [butan-2-ol] | 6.045 ± 0.02 |
| C=CCCCC [hex-1-ene] | 44.98 ± 0.2 |
